In patent publication US5688640A, “Methods of screening of effectors of endothelin converting enzyme-1” (Board of Regents, The University of Texas System, priority 1994, dated 1997):
Entries after “also recorded” stand apart in the source; their conditions may differ. Blank lines part the entries; values can stand above or below the molecule they belong to. Ends that are not written are not given here.

Key:
[1] = biological target: T1, ECE-1 (Bos taurus, UniProt P42891); assay: Secretion of big and mature ET-1 by preproET-1-transfected CHO/ECE-1 cells (conversion of endogenous big ET-1); assay type: cell-based, bovine
T1 construct: The entire coding regions from bovine ECE-1; made in house
T1 sequence (P42891 with tags, fused parts or gaps A87G/A695G limits assumed): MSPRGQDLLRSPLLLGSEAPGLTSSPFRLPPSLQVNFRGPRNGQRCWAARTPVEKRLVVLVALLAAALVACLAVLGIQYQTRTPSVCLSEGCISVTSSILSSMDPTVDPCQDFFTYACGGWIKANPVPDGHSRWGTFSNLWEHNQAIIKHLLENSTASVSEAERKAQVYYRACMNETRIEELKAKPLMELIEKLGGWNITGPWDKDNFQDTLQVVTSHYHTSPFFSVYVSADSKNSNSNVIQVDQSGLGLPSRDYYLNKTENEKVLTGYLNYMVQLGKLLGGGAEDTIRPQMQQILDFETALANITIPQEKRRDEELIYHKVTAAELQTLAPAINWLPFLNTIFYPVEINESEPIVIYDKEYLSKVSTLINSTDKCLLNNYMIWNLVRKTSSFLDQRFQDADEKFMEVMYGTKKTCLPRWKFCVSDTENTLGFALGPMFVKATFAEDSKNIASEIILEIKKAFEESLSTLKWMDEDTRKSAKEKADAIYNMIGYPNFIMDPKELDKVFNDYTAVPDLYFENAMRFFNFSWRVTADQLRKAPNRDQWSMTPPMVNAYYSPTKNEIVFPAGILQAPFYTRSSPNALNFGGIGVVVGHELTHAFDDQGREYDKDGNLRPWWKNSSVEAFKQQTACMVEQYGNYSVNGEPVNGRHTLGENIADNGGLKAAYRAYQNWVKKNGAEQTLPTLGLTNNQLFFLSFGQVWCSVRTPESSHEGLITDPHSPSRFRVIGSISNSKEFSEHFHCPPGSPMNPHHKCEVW
Procedure: (§2) Transient transfection of the preproET-1 cDNA was performed by the DEAE-dextran method as described (Sakurai et al., 1990). Twelve hours after transfection, cells were refed with fresh medium with or without ECE inhibitors. The medium was conditioned for an additional 12 hours and directly subjected to EIA for mature and big ET-1 (Suzuki et al., 1990; Suzuki et al., 1989). For the Ca^2+ transient bioassay (see below), Phenol Red-free CHO-SFM medium (Gibco/BRL) without serum was used in order to avoid artefacts induced by serum and the dye.
To examine whether the expressed ECE-1 can convert big ET-1 in intact cells, paired cultures of CHO/ECE-1 cells and untransfected CHO cells were transiently transfected with the preproET-1 construct. After the transient transfection, the amounts of mature and big ET-1 secreted into the medium were measured by EIA. […] The functional authenticity of the immunoreactive mature peptide produced from the double-transfected cells was examined with a bioassay system that uses another line of CHO cells expressing human ETA receptors as reporter cells. […] The cells were loaded with the Ca^2+ indicator Fura-2/AM, and directly challenged with serum-free, Phenol Red-free culture supernatants from the aforementioned double-transfection protocols. […] Next the supernatants from the preproET-1-transfected CHO/ECE-1 cells were added, so that the final concentration of ET-1 as measured by EIA was ≈20 pM.

[2] = biological target: T1, ECE-1; assay: Production of mature ET-1 by 1:1 co-cultures of CHO/ECE-1 and CHO/preproET-1 cells (conversion of exogenous big ET-1); assay type: cell-based, bovine
Procedure: as §2
Next, the ability of CHO/ECE-1 cells to convert exogenously supplied big ET-1 was examined by co-culturing the cells with a separate CHO cell line that was stably transfected with the preproET-1 construct (CHO/preproET-1 cells).

[3] = biological target: T2, human ETA receptor (Homo sapiens, UniProt P25101); assay: Ca2+ transient bioassay in CHO cells expressing human ETA receptors; assay type: cell-based
T2 sequence (P25101 21-427): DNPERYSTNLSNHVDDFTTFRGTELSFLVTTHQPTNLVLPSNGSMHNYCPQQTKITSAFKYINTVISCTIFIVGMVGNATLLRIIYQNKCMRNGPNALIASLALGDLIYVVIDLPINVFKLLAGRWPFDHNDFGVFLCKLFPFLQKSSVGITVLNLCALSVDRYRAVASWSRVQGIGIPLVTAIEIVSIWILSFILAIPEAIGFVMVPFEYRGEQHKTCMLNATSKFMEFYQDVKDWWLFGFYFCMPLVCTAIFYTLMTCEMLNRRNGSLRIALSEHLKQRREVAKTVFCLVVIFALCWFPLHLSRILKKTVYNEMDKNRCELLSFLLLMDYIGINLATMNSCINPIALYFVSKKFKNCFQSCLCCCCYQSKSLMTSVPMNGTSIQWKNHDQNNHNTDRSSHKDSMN
Procedure: Bioassay of culture supernatants from preproET-1-transfected CHO/ECE-1 cells using CHO cells expressing human ETA receptors as reporter cells. Sup-A and Sup-B represents the serum-free medium conditioned for 12 hours with CHO/ECE-1 and CHO cells each transiently transfected with the preproET-1 construct, respectively.
For the Ca^2+ transient bioassay (see below), Phenol Red-free CHO-SFM medium (Gibco/BRL) without serum was used in order to avoid artefacts induced by serum and the dye.
A CHO stable transfectant clone expressing human ETA receptors was loaded with fura-2/AM, and ET-1 induced intracellular calcium transients were monitored by a Jasco CAM-110 Intracellular Ion Analyzer as previously described (Sakamoto et al., 1993).
The functional authenticity of the immunoreactive mature peptide produced from the double-transfected cells was examined with a bioassay system that uses another line of CHO cells expressing human ETA receptors as reporter cells. A stable transfectant cell line was obtained by transfecting CHO cells with a human ETA receptor construct (Sakamoto et al., 1993). […] Next the supernatants from the preproET-1-transfected CHO/ECE-1 cells were added, so that the final concentration of ET-1 as measured by EIA was ≈20 pM.

[4] = biological target: T1, ECE-1; assay: Substrate conversion / isopeptide selectivity of cloned ECE-1 (CHO/ECE-1 membranes or homogenate, EIA); assay type: biochemical, bovine; settings: in vitro; big endothelin isopeptides 0.1 μM
Procedure: FIG. 2A. Functional expression of ECE-1 cDNA in transfected CHO cells.
FIG. 2E. Isopeptide selectivity of ECE-1 expressed in solubilized CHO/ECE-1 membranes. Designated synthetic big endothelin isopeptides (0.1 μM) were used as substrates and generation of corresponding mature peptides were measured by EIA.
(§1) Reaction mixtures for ECE assay (50 μl) contained 0.1M sodium phosphate buffer (pH 6.8), 0.5M NaCl, 0.1 μM human big ET-1(1-38) and enzyme fraction. For some studies, the reactions were preincubated at 37° C. with various protease inhibitors for 15 minutes prior to the addition of big ET-1. The reactions were incubated at 37° C. for 30 min in siliconized 0.5-ml microcentrifuge tubes. […] Duplicate assay wells were used for each enzyme reaction. Protein concentration was determined by the Bradford method (Bio-Rad) using IgG as standard.

[5] = biological target: T1, ECE-1; assay: HPLC analysis of big ET-1 conversion by partially purified ECE-1 from CHO/ECE-1 cells; assay type: biochemical, bovine; settings: 5 μM big ET-1, 24 hr
Procedure: FIG. 3. HPLC analysis of big ET-1 conversion by partially purified ECE-1 from CHO/ECE-1 cells. ECE-1 was partially purified from solubilized CHO/ECE-1 membranes by WGA-agarose chromatography as described in Example 1. The enzyme fraction (800 μg protein) was incubated at 37° C. with 1 μM big ET-1 in 800 μl of ECE assay buffer. […] The reaction mixture was separated by HPLC as described in Example 1. Arrows indicate elution times of the authentic peptides.
Samples were injected into a C18 reverse-phase HPLC column (Ultrasphere ODS 5 μm, 4.6×250 mm; Beckman), which was eqhilibrated with 18% (v/v) acetonitrile/0.1% (v/v) TFA and maintained at 40° C. The column was eluted at a flow rate of 1 ml/min with an 18-30% linear gradient of acetonitrile in 0.1% TFA over 12 minutes followed by a 30-36% linear gradient over an additional 12 minutes. Peptides were detected by UV absorbance at 210 nm. […] To confirm chemical authenticity of immunoreactivity in culture supernatants, the conditioned medium was pre-extracted with a Sep-Pak C18 cartridge as described (Suzuki et al., 1989) before HPLC. HPLC fractions (0.5 ml) were collected and evaporated to dryness under vacuum. […] No other immunoreactive peaks were detected. […]

[6] = tested on: endothelial ECE; settings: cited from earlier work; for inhibition of endothelial ECE activity (in words): membranes and purified preparations
[7] = tested on: ECE; settings: cited from earlier work
[8] = tested on: cultured endothelial cells; settings: cited from earlier work
[9] = biological target: T1, ECE-1; assay: ECE activity in solubilized CHO/ECE-1 membranes/homogenates, protease inhibitors (generation of mature ET-1 from big ET-1 by EIA); assay type: biochemical, bovine; settings: for inhibition of ECE activity (in words): CHO/ECE-1 membranes
Procedure: Solubilized membranes were prepared from this homogenate as described under Purification of ECE, except that buffer B was used instead of buffer A. For protease inhibitor studies, membranes were prepared by using buffer B without pepstain A, PMSF and pCMS.

[10] = biological target: T3, ECE (Bos taurus, UniProt Q28010); assay: ECE activity in bovine adrenal cortex membrane fractions; assay type: biochemical
T3 construct: full length 758 aa
T3 sequence (Q28010 1-758): T1 sequence (P42891 with tags, fused parts or gaps A87G/A695G limits assumed)
Procedure: Bovine adrenal glands were obtained at a local slaughter house, immediately immersed in ice-cold Dulbecco's phosphate buffered saline (PBS), and brought to the laboratory within 2 hours. All subsequent procedures were performed at 4° C. Adrenal cortices were carefully separated from the medulla and connective tissue. […] The homogenate was centrifuged at 1,000×g for 10 min, and the resulting supernatant was further centrifuged at 100,000×g for 60 min. The pellet was resuspended in 5×volume of buffer A by a Teflon homogenizer, and centrifuged again at 100,000×g for 60 min. The crude membrane pellet was solubilized at 10-20 mg protein/ml in buffer A containing 2.5% C12 E10 for 30 min. The mixture was centrifuged at 100,000×g for 60 min, and the supernatant was saved as solubilized membrane.

[11] = biological target: T1, ECE-1; assay: Reconstitution of ECE-1 activity by metal ions after EDTA stripping; assay type: biochemical, bovine; settings: ZnCl2 300 μM after 30 μM EDTA
Procedure: FIG. 2D. […] After incubating on ice for 15 min, the designated concentrations of metal ions were added as chloride salt and ECE activity was measured.
as §1
Approximately 3,000-cm^2 confluent monolayers of cells (≈10^8 cells) were rinsed twice with ice-cold PBS. Cells were scraped off by a rubber policeman in ice-cold PBS, and collected by centrifugation. All subsequent procedures were performed at 4° C. Cells were resuspended in 10×volume of buffer B (20 mM Tris-HCl (pH 7.4)/20 μM pepstatin A/1 mM PMSF/1 MM pCMS/250 mM sucrose), and homogenized by a 30-ml Teflon homogenizer with the piston rotating at 300 r.p.m. […]

[12] = ET-1(1-20) and ET-1(1-22) relative to authentic ET-1(1-21); cited from earlier work
[13] = tested on: CHO/ECE-1 cells; assay: Concentration of intact compound in culture medium by HPLC before and after culture with CHO/ECE-1 cells

conversion of endogenous big ET-1 (intracellular) ([1]; CHO/ECE-1 cells, depending on experimental conditions): 50-90%
concentration secreted in culture supernatant ([1]; preproET-1-transfected CHO/ECE-1 cells): 46 pM
conversion of endogenous big ET-1 to mature peptide, typical culture ([1]; preproET-1-transfected CHO/ECE-1 cells, no inhibitor): 84%
conversion of exogenous big ET-1 ([2]; co-culture with CHO/ECE-1 cells): 5-10%
intracellular Ca2+ response of ETA reporter cells (in words) ([3]; 20 pM mature ET-1 (final), 1,000-fold higher concentration of big ET-1, supernatant at ≈20 pM ET-1): did not respond
conversion of big ET-1 into two peptide products [5]: > 90%
product yield judged by areas under HPLC peaks [5]: > 80%
Molecule: big ET-1: human big ET-1(1-38) obtained from American Peptides (CSCSSLMDKECVYFCHLDIIWVNTPEHVVPYGLGSPRS; ends and bridges not checked; cysteine pairing not given here; UniProt P05305 53-90, looked up)
processing as ECE-1 substrate (in words) [4]: more efficiently than big ET-2 and big ET-3
Km ([6]; crude membranes and purified enzyme preparations, read-out: apparent Km of endothelial ECE): 1 to 10 µM
phosphoramidon-sensitive conversion of exogenously administered big ET-1 (in words) ([7]; isolated perfused tissues and whole animal preparations): only up to a few %
conversion of endogenously produced big ET-1 ([8]; cultured endothelial cells): 60-80%

Molecule: O=C(O)CNC(=O)C(CS)Cc1ccccc1 (stereo not shown) [Thiorphan]
inhibition of ECE activity (in words) ([9]; in vitro): not inhibited; also recorded: not by thiorphan or captopril
inhibition of endothelial ECE activity (in words) [6]: not by thiorphan

Molecule: O=S(=O)(O)c1cc[c]([Hg][Cl])cc1 [pCMS, p-chloro-mercuriphenylsulphonic acid]
ECE activity (% of ECE activity without inhibitors) ([9]; inhibitor 100 μM, means of duplicate assays from two independent experiments): 298%

inhibition of ECE activity (in words) ([9]; in vitro): inhibited
Molecule: c1cnc2c(c1)ccc1cccnc12 [1,10-phenanthroline]

Molecule: O=C(O)CN(CCN(CC(=O)O)CC(=O)O)CC(=O)O [EDTA]
inhibition at 1000 µM ([10]; read-out: inhibition of ECE activity): > 90%

Molecule: big ET-1(1-31): C-terminally truncated substrate (CSCSSLMDKECVYFCHLDIIWVNTPEHVVPY; ends and bridges not checked; cysteine pairing not given here; UniProt P05305 53-83, looked up, fragment)
processing as ECE-1 substrate (in words) [4]: did not generate detectable levels of mature peptide; also recorded: cannot be an ECE-1 substrate

Molecule: C[C@H](CS)C(=O)N1CCC[C@H]1C(=O)O [Captopril]
inhibition of ECE activity (in words) ([9]; in vitro): not inhibited; also recorded: not by thiorphan or captopril

Molecule: [Cl-].[Cl-].[Zn+2] [ZnCl2]
reconstituted ECE activity, of the original levels [11]: up to 110%

Molecule: ET-1(1-22): ET-1(1-22) (CSCSSLMDKECVYFCHLDIIWV; ends and bridges not checked; cysteine pairing not given here; UniProt P05305 53-74, looked up, fragment)
vasoconstrictor/biological activity (in words) [12]: at least three orders of magnitude weaker

Molecule: ET-1(1-20): ET-1(1-20) (CSCSSLMDKECVYFCHLDII; ends and bridges not checked; cysteine pairing not given here; UniProt P05305 53-72, looked up, fragment)
vasoconstrictor/biological activity (in words) [12]: at least three orders of magnitude weaker

Molecule: CC(C)C[C@H](NP(=O)(O)O[C@@H]1O[C@@H](C)[C@H](O)[C@@H](O)[C@H]1O)C(=O)N[C@@H](Cc1c[nH]c2ccccc12)C(=O)O [Phosphoramidon]
inhibition at 100 µM ([10]; 100 μM, bovine adrenal cortex membranes): > 90%
inhibition of endothelial ECE activity (in words) [6]: low μM range
inhibition of conversion of exogenous big ET-1 (in words) ([7]; whole animals and isolated perfused organs, most assay systems): consistently inhibits the conversion
effect on production of mature ET-1 (in words) ([8]; added to the medium): decreases the production of mature ET-1 in a dose dependent manner

Molecule: COc1c2c(c(O)c3c1C(O)Cc1cc(CC(C)O)c(C(=O)O)c(O)c1-3)C(=O)c1cccc(O)c1C2=O (stereo not shown) [FR901533, 1,6,9,14-tetrahydroxy-3-(2-hydroxypropyl)-7-methoxy-8,13-dioxo-5,6,8,13-tetrahydro-benzo[a]naphthacene-2-carboxylate Na]
inhibition of ECE activity (in words) ([9]; in vitro): efficiently inhibited
IC50 ([9]; in vitro, solubilized CHO/ECE-1 membranes, read-out: apparent IC50 for inhibition of ECE activity): ~1.5 µM
inhibition of production/secretion of mature ET-1 by live double-transfected cells (in words) ([1]; inhibitor added to medium): did not inhibit
IC50 [2]: ~1 µM
inhibition of conversion of exogenous big ET-1 (in words) ([2]; added to medium at low μM concentrations): efficiently inhibited
measured concentration in medium after culture ([13]; 100 μM nominal, after 72-hr culture with CHO/ECE-1 cells): 94 µM
measured concentration in medium before culture ([13]; 100 μM nominal, before 72-hr culture with CHO/ECE-1 cells): 93 µM
degradation by the cells (in words) ([13]; 72-hr culture with CHO/ECE-1 cells): not degraded

Molecule: CC(C)C[C@H](NC(=O)N1CCCCCC1)C(=O)N[C@H](Cc1cn(C)c2ccccc12)C(=O)N[C@H](Cc1ccccn1)C(=O)O [FR139317]
inhibition of Ca2+ response to CHO/ECE-1 supernatant (in words) ([3]; supernatant with ≈20 pM ET-1): completely abolished
